Marks after values point to notes of the source that are not given here.
Assays:
Assay type in all cases: in vivo
Conditions in all cases: 100 = 100% disease control
[1] = tested on: Botrytis cinerea; test: Test C: tomato Botrytis on tomato seedlings, sprayed the day before inoculation, visual disease rating
Outline: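 Tomato seedlings were sprayed until run-off with test suspensions in acetone/water (50/50) carrying 250 ppm polyhydric alcohol ester surfactant. Standard dose was 200 ppm, with 40 ppm for marked entries.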

[2] = tested on: Alternaria solani; test: Test D: tomato early blight, sprayed the day before inoculation, visual disease rating
Outline: (§1)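 200 ppm run-off spray (500 g/ha equivalent); * = 40 ppm. Vehicle: acetone/water 50/50, 250 ppm Trem® 014.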

[3] = tested on: Septoria nodorum; test: Test F: wheat glume blotch on wheat seedlings, sprayed the day before inoculation, visual disease rating
Outline: as §1

[4] = tested on: Septoria tritici; test: Test G: wheat leaf blotch on wheat seedlings, sprayed the day before inoculation, visual disease rating
Outline: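 Seedlings receive a protective spray of test suspension in acetone/water carrying 250 ppm surfactant, mostly at 200 ppm and at 40 ppm where marked. They are inoculated the next day, kept saturated at 24° C for 48 h, then held at 20° C for 19 days before visual scoring.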

[5] = tested on: Puccinia recondita f. sp. tritici; test: Test H: wheat leaf rust, test suspension sprayed after inoculation of wheat seedlings, visual disease rating
Outline: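 Wheat seedlings inoculated with P. recondita spores, held 24 h saturated at 20 °C, then 2 days in growth chamber at 20 °C; compound suspension (acetone/water with Trem 014) sprayed to run-off afterwards. Rated visually; 200 ppm (≈500 g/ha) unless marked *, which denotes 40 ppm.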

[6] = tested on: Puccinia recondita f. sp. tritici; test: Test I: wheat leaf rust on wheat seedlings, sprayed the day before inoculation, visual disease rating
Outline: as §1

[7] = tested on: Erysiphe graminis f. sp. tritici; test: Test J: wheat powdery mildew on wheat seedlings, sprayed the day before inoculation, visual disease rating
Outline: as §1

[8] = 200 ppm, 0 = no control relative to controls
[9] = 40 ppm (marked *), 0 = no control

| Compound | Test C disease control rating [1, 8] [%] | Test D disease control rating [2, 8] [%] | Test F disease control rating [3, 8] [%] | Test G disease control rating [4, 8] [%] | Test H disease control rating [5, 8] [%] | Test I disease control rating [6, 8] [%] | Test J disease control rating [7, 8] [%] | also measured |
| --- | --- | --- | --- | --- | --- | --- | --- | --- |
| Cc1ccc(-n2c(Cl)nc(Br)c2-c2c(F)ccc(F)c2F)cc1 [compound 465] |  |  |  |  |  |  |  | Test C disease control rating ([1]; 40 ppm (marked *)): 100* %; Test D disease control rating ([2]; 40 ppm (marked *)): 99* %; Test F disease control rating ([3]; 40 ppm (marked *)): 0* %; Test G disease control rating ([4]; 40 ppm (marked *)): 88* %; Test H disease control rating ([5]; 40 ppm (marked *)): 0* %; Test I disease control rating ([6]; 40 ppm (marked *)): 99* %; Test J disease control rating ([7]; 40 ppm (marked *)): 99* % |
| Fc1cc(F)c(-c2c(Cl)ncn2-c2cccc(OC(F)F)c2)c(F)c1 [compound 584] | 99 | 99 | 0 | 98 | 0 | 100 | 99 |  |
| Cc1nc(Br)c(-c2c(F)cccc2F)n1-c1ccc(Cl)c2ccccc12 [compound 337] |  |  |  |  |  |  |  | Test C disease control rating [1, 9]: 19* %; Test D disease control rating [2, 9]: 0* %; Test F disease control rating [3, 9]: 0* %; Test G disease control rating [4, 9]: 23* %; Test H disease control rating [5, 9]: 0* %; Test I disease control rating [6, 9]: 0* %; Test J disease control rating [7, 9]: 0* % |
| COc1cc(F)c(-c2c(Cl)nc(Cl)n2-c2cccc(OC(F)F)c2)c(F)c1 [compound 565] | 100 | 100 | 100 | 96 | 97 | 100 | 100 |  |
| Cc1ncc(Cc2c(F)cc(F)cc2F)n1-c1c(Cl)cccc1Cl [compound 536] | 89 | 68 | 0 | 90 | 37 | 98 | 98 |  |
| COc1cc(OC)c(Br)c(-n2c(C)nc(Br)c2Cc2ccc(F)cc2F)c1Br [compound 477] | 9 | 0 | 0 | 0 | 0 | 75 | 0 |  |
| Cc1nc(Cl)n(-c2ccc(Cl)c(F)c2)c1-c1ccc(Br)cn1 [compound 358] | 99 | 0 | 0 | 90 | 0 | 41 | 0 |  |
| COc1ccc(F)c(-c2c(Cl)nc(Cl)n2-c2ccc(C)c(F)c2)c1F [compound 561] | 99 | 100 | 97 | 100 | 9 | 100 | 100 |  |
| COc1cc(F)c(-c2c(Cl)nc(Cl)n2-c2cccnc2OC)c(F)c1 [compound 676] | 100 | 99 | 99 | 99 | 99 | 100 | 98 |  |
| COc1cc(F)c(-c2c(Cl)nc(Br)n2Cc2ccc(Cl)cc2)c(F)c1 [compound 283] |  |  |  |  |  |  |  | Test C disease control rating ([1]; 200 ppm, 0 = no control): 100%; Test D disease control rating ([2]; 200 ppm, 0 = no control): 98%; Test F disease control rating ([3]; 200 ppm, 0 = no control): 0%; Test G disease control rating ([4]; 200 ppm, 0 = no control): 93%; Test H disease control rating ([5]; 200 ppm, 0 = no control): 0%; Test I disease control rating ([6]; 200 ppm, 0 = no control): 93%; Test J disease control rating ([7]; 200 ppm, 0 = no control): 99% |
| COc1cc(F)c(-c2c(Cl)nc(Cl)n2-c2ccc(OC)c(Cl)c2)c(F)c1 [compound 646] |  |  |  |  |  |  |  | Test C disease control rating ([1]; 40 ppm (marked *)): 93* %; Test D disease control rating ([2]; 40 ppm (marked *)): 47* %; Test F disease control rating ([3]; 40 ppm (marked *)): 0* %; Test G disease control rating ([4]; 40 ppm (marked *)): 97* %; Test H disease control rating ([5]; 40 ppm (marked *)): 0* %; Test I disease control rating ([6]; 40 ppm (marked *)): 92* %; Test J disease control rating ([7]; 40 ppm (marked *)): 35* % |
| COc1ccc(F)c(-c2c(Cl)ncn2-c2ccc(C#N)cc2)c1F [compound 527] | 100 | 99 | 0 | 95 | 37 | 91 | 88 |  |
| CN(C)c1c(Cl)cc(-n2cnc(Cl)c2-c2c(F)cccc2F)cc1Cl [compound 652] |  |  |  |  |  |  |  | Test C disease control rating ([1]; 40 ppm (marked *)): 0* %; Test D disease control rating ([2]; 40 ppm (marked *)): 0* %; Test F disease control rating ([3]; 40 ppm (marked *)): 0* %; Test G disease control rating ([4]; 40 ppm (marked *)): 0* %; Test H disease control rating ([5]; 40 ppm (marked *)): 6* %; Test I disease control rating ([6]; 40 ppm (marked *)): 0* %; Test J disease control rating ([7]; 40 ppm (marked *)): 0* % |
| Cc1nc(Cl)c(Cc2c(F)cc(F)cc2F)n1-c1c(Cl)cccc1Cl [compound 537] | 99 | 76 | 60 | 97 | 9 | 100 | 99 |  |
| Cc1ccc(-n2c(C)nc(C)c2-c2c(F)ccc(F)c2F)cc1 [compound 490] |  |  |  |  |  |  |  | Test C disease control rating ([1]; 40 ppm (marked *)): 97* %; Test D disease control rating ([2]; 40 ppm (marked *)): 99* %; Test F disease control rating ([3]; 40 ppm (marked *)): 0* %; Test G disease control rating ([4]; 40 ppm (marked *)): 87* %; Test H disease control rating ([5]; 40 ppm (marked *)): 0* %; Test I disease control rating ([6]; 40 ppm (marked *)): 76* %; Test J disease control rating ([7]; 40 ppm (marked *)): 100* % |
| COc1cc(F)c(-c2c(Cl)nc(C=NO)n2-c2ccc(F)cc2)c(F)c1 [Compound 349, 4-chloro-5-(2,6-difluoro-4-methoxyphenyl)-1-(4-fluorophenyl)-1H-imidazole-2-carboxaldehyde oxime] |  |  |  |  |  |  |  | pest or weed control at 200 ppm ([1]; Botrytis cinerea, 120 h, 200 ppm, 0 = no control relative to controls): 100%; pest or weed control at 200 ppm ([2]; Alternaria solani, 168 h, 200 ppm, 0 = no control relative to controls): 99%; pest or weed control at 200 ppm ([3]; Parastagonospora nodorum, 264 h, 200 ppm, 0 = no control relative to controls): 99%; pest or weed control at 200 ppm ([4]; Zymoseptoria tritici, 504 h, 200 ppm, 0 = no control relative to controls): 88%; pest or weed control at 200 ppm ([5]; Puccinia recondita, 96 h, 200 ppm, 0 = no control relative to controls): 0%; pest or weed control at 200 ppm ([6]; Puccinia recondita, 168 h, 200 ppm, 0 = no control relative to controls): 99%; pest or weed control at 200 ppm ([7]; Blumeria graminis, 168 h, 200 ppm, 0 = no control relative to controls): 95% |
| Fc1cc(-n2c(Cl)nc(Cl)c2-c2ccnc(Br)c2)ccc1Cl [compound 485] | 96 | 88 | 0 | 95 | 0 | 98 | 98 |  |
| COc1cc(F)c(-c2c(Cl)nc(Cl)n2Cc2ccc(Cl)nc2)c(F)c1Cl [compound 668] | 100 | 99 | 91 | 99 | 0 | 85 | 96 |  |

Source: patent US20110045101A1, “FUNGICIDAL SUBSTITUTED AZOLES” (E.I. Du Pont De Nemours and Company, priority 2009, published 2011)
